Like-named read-outs stand apart in the source and are kept apart here.

A short description of data set [1]: Storage stability (related substance identification test). The format is physicochemical. The conditions noted are these: for storage stability: stored at −2 to 8° C., in % (unit assumed). An excerpt: An attempt was made to evaluate the storage stability over time of the compound of Example 7 of the present invention and the compound of Comparative Example 1 (which is the deuterium-unsubstituted form of the compound of Example 7) depending on the presence of deuterium substitution.

The test system of data set [2] is Human gastric cancer cells (MKN-45 Cell). Briefly: Anticancer efficacy in xenograft mouse model. Type of data set: in vivo, nude mice. The conditions noted are these: 10 mg/kg oral once/day, Day 12, MKN-45 xenograft. The procedure:
This study was conducted to evaluate the anticancer efficacy of the compound of Example 15 of the present invention in a xenograft tumor model. Human gastric cancer cells (MKN-45 Cell) were purchased from the Korea Cell Line Bank and cultured in a 5% CO2 incubator at 37° C. by using an RPMI 1640 medium containing 1% penicillin-streptomycin and 10% fetal bovine serum. The cultured cells were separated using 0.25% Trypsin-0.02% EDTA every 3 to 4 days and then subcultured. Cells. Four-week-old female nude mice were purchased, and after a one-week acclimatization period in a laboratory environment, the nude mice that reached 5 weeks of age were used in the experiment. MKN-45 cells were made into a single cell suspension by using Matrigel and DPBS, and implanted subcutaneously into nude mice at a concentration of 1×10^7 cells per mouse. One week after MKN-45 cell transplantation, experimental animals with tumors with a specific size were selected and divided into 3 groups with 10 animals per group. The compound of Example 7 was administered orally at administration concentrations of 10 mg/kg and 30 mg/kg, and the experiment was conducted for 12 days.
The size of the tumor was calculated using the formula ‘short axis×short axis×long axis/2,’ and the results of the changes in tumor size change are illustrated in FIG. 2.

The target in data set [3] is proton pump (H+/K+-ATPase) (Sus scrofa (Pig), UniProt P19156). In words: Inhibitory activity on proton pump (H+/K+-ATPase) activity. The conditions noted are these: porcine gastric mucosal microsomes, 5 mM KCl, pH 6.4. Type of data set: biochemical. The method, then:
The compounds indicated in the above examples were tested for their inhibitory activity on proton pump (H+/K+-ATPase) activity as follows by applying the method disclosed in the literature. According to the methods of Nobuyuki Takahashi and Yukinori Take [J Pharmacol Exp Ther. 2018 February; 364(2):275-286], the gastric mucosal microsome fraction was isolated from the porcine stomach. The stomach isolated from the pig was washed first with tap water, only the fundus was cut, and then washed (a second time) with cold PBS. The gastric mucosa was separated by scraping, homogenized with 250 mM sucrose solution, and centrifuged at 20,000 g at 4° C. for 30 minutes. Only the supernatant was centrifuged at 115,000 g at 4° C. for 30 minutes, and the precipitate was suspended in 250 mM sucrose solution, added to cover with 7% Ficoll solution, and centrifuged at 135,000 g at 4° C. for 60 minutes. The microsome fraction formed at the interface was recovered and suspended in 250 mM sucrose solution, and centrifuged at 135,000 g, 4° C. for 60 minutes, and the precipitate was dissolved in 0.9% NaCl. The isolated gastric mucosal microsome fraction was quantified by using the Bicinchoninic Acid (BCA) kit (Thermo).
60 μl of enzyme reaction solution (a test compound at a given concentration, […] of gastric mucosal microsomes, 3 mM of MgSO4, 5 mM of KCl, 40 mM of Tris-HCl pH 6.4, and 0.5 mM of adenosine triphosphate) was added to each well of a 96-well plate and reacted at 37° C. for 60 minutes, and 30 μl of 10% SIDS was added to stop the enzyme reaction. 200 μl of detection solution (in which 10% L-ascorbic acid with pH 5.0 was mixed with 35 mM of ammonium molybdate tetrahydrate/15 mM of zinc acetate with pH 5.0 at the ratio of 4:1) was added and reacted at 37° C. for 30 minutes, and the absorbance value was measured at 750 nm by using a microplate reader (MULTISKAN GO, Thermo). The inhibition rate of proton pump activity was expressed as I050, which is 50% inhibition of enzyme activity, by using GraphPad Prism 5. In Table 1 below, an I050 value of 100 nM or less is indicated by +++, an I050 value of 101 to 200 nM is indicated by ++, and an I050 value of above 200 nM is indicated by +.

Chain of proton pump (H+/K+-ATPase) (P19156 2-1034): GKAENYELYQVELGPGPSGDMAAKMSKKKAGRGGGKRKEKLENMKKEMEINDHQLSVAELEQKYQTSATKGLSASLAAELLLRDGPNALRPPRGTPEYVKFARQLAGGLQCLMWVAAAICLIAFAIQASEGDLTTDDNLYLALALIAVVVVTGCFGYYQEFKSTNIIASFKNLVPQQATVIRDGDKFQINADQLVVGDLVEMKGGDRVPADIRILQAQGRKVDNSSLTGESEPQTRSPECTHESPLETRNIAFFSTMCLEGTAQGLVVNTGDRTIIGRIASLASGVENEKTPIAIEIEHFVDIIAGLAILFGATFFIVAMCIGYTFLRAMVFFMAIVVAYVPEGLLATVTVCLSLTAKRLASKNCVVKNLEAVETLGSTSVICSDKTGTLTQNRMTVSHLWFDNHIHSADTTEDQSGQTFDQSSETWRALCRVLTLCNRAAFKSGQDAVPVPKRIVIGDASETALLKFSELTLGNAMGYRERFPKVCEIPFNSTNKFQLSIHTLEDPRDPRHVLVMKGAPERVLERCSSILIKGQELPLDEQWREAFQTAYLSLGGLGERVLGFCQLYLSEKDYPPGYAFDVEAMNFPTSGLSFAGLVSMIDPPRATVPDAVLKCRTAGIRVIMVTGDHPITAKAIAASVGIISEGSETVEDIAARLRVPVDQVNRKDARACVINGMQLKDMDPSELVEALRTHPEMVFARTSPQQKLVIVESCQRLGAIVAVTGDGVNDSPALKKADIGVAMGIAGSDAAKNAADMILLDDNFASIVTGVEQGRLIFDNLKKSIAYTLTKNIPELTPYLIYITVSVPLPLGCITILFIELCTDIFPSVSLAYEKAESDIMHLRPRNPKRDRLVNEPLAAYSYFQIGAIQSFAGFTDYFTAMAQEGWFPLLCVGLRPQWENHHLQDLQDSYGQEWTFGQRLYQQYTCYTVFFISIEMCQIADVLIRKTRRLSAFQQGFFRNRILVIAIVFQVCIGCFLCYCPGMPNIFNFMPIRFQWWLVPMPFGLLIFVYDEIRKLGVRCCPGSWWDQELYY
Chain of proton pump (H+/K+-ATPase) (P18434 whole entry partner): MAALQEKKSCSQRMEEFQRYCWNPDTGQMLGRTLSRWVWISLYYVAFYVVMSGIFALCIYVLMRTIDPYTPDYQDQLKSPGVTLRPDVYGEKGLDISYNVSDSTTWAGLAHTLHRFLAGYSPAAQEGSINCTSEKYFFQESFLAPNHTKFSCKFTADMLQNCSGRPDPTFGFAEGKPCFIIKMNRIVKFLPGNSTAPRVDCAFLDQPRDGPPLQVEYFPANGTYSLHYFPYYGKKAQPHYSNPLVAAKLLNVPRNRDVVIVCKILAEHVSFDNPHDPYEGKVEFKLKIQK

By IC50 is commonly meant the point on the concentration scale where inhibition reaches its midpoint. For the compound `[2H]C([2H])([2H])NCc1cc(-c2ccccc2F)n(S(=O)(=O)c2ccc(F)cc2)c1` [Example 7, N-((5-(2-fluorophenyl)-1-((4-fluorophenyl)sulfonyl)-1H-pyrrol-3-yl)methyl)methan-d3-amine], the “storage stability, Results” value in data set [1] (stored at −2 to 8° C. for 3 months) is reported as “Stable”. In addition, the storage stability in data set [1] (1st week) was found to be 98.33; in data set [1] (2nd week) it was 98.11; in data set [1] (3 months), 98.9; in data set [1] (3rd week) it was 98.11; in data set [1] (4th week), 98.20; in data set [1] (Initial), 98.38. Further, the “tumor size reduced as compared to the Control group (vehicle)” value in data set [2] is reported as 42%. Moreover, the IC50 is 25 nM in data set [3] (read-out: Proton pump inhibitory activity (IC50)) and ≤ 100 nM in data set [3] (read-out: Proton pump inhibitory activity (IC50, nM), class symbol).

The values above are taken from patent publication US20250051275A1, “PYRROLE DERIVATIVE OR PHARMACEUTICALLY OR SITOLOGICALLY ACCEPTABLE SALTS THEREOF, AND COMPOSITION FOR PREVENTION, AMELIORATION OR TREATMENT OF GASTROINTESTINAL DISORDERS COMPRISING SAME AS ACTIVE INGREDIENT” (HANA PHARM CO., LTD., priority 2021, published 2025).
